Measured values: patent US12331019B2, “Modified amino acid derivatives for the treatment of neurological diseases and selected psychiatric disorders” (Uniwersytet Jagiellonski, priority 2019, dated 2025)

Tests used:
patients = details: monotherapy; cited from earlier work
HaCaT cells = experiment: cytotoxic activity, MTT assay; type: cell-based; details: Homo sapiens, 72 hours incubation, mean ± SD
Excerpt: MTT assay. […] The IC50 value was estimated using CompuSyn version 1.0.

Swiss albino mice (CD-1) [1] = details: i.p., CD-1 mice, 30 min; racemates, disclosed in publications; cited from earlier work
Swiss albino mice (CD-1) [2] = experiment: 6 Hz (44 mA) psychomotor seizure test; type: in vivo; details: Mus musculus, ip, 0.5 h; i.p., CD-1 mice, tested 30 min after administration
[3] = test system: neurons derived from human neuroblastoma SH-SY5Y cells; experiment: neurotrophic activity on human neurons, MTT test; details: 48 hours; for viability of human neurons under standard conditions: 0.1 to 100 μg/ml; for concentrations from which the compound acted trophically (eliminating the effect of lack of B27 supplement): trophic stress (B27 removed)
[4] = rotarod test (motor coordination); details: male, Swiss albino (CD-1), mouse, in vivo, ip
Procedure: (§1) The study was conducted on male Swiss albino mice (CD-1) weighing 18-26 g. All procedures were carried out in accordance with applicable Polish and international guidelines on the ethics of animal testing, after obtaining appropriate institutional approval. […] These studies were carried out on individuals of male C57 black mice (Charles River) and individuals of male Sprague-Dawley rats. All tests were carried out based on the procedures described in the specialist literature.
(§2) These studies were also carried out in rats according to the methodology described by ETSP. The toxic dose (TD50) in the rotarod test was estimated based on the results obtained in 3-4 groups of animals consisting of at least 6 individuals.
(§3) To perform a statistical evaluation of the results, one-way analysis of variance (ANOVA) followed by Dunnett's post hoc test (multiple comparison test) were used. The values were considered statistically significant if p<0.05.

mice [5] = experiment: spontaneous locomotor activity test; type: in vivo, mouse
Procedure: The assessment of the influence of the tested compounds on the spontaneous locomotor activity of animals (assessment of the sedative or activating effect) was carried out in accordance with the methodology described in the scientific literature (Mogilski et al. Inflamm. Res. 2017, 66, 79-95). The study group consisted of 10 animals.

CYP3A4 = biological target: T1, CYP3A4 (Homo sapiens, UniProt P08684); experiment: CYP3A4 P450-Glo luminescence test; type: in vitro ADME; details: 10 μM
T1 construct: purchased Promega (Madison, WI, USA)
Procedure: (§4) The studies were conducted using commercial luminescence tests CYP3A4 P450-Glo™, CYP2D6 P450-Glo™ and CYP2C9 P450-Glo™ from Promega (Madison, WI, USA).
(§5) The studies were conducted using commercial luminescence tests CYP3A4 P450-Glo™, CYP2D6 P450-Glo™ and CYP2C9 P450-Glo™ from Promega (Madison, WI, USA). The CYP isoforms selected for study are responsible for the metabolism of approximately 60-70% of the drugs available and their stimulation or inhibition determines the majority of metabolic drug interactions.

mice [6] = experiment: oxaliplatin-induced neuropathic pain model, von Frey test; type: in vivo, mouse
Procedure: as §1, with “literature. […] The study group consisted of 8-10 animals. […] To perform a statistical evaluation of the results, one-way analysis of variance (ANOVA) followed by Dunnett's post hoc test (multiple comparison test) were used. The values were considered statistically significant if p<0.05.” for “literature.”

Sprague-Dawley rats [7] = experiment: lamotrigine resistant amygdala kindled seizure model; type: in vivo, rat; details: 70 mg/kg i.p., 30 min, 5 rats tested
Procedure: as §1
(§6) Screening was performed on groups of 4-8 mice or 4-8 rats. The median effective dose (ED50) in a given test was estimated based on the results obtained in 3-4 groups of animals consisting of at least 6 individuals.

CYP2C9 = CYP2C9 (Homo sapiens, UniProt P11712); details: 10 μM
Procedure: as §4, §5

Sprague-Dawley rats [8] = experiment: MES test in rats, ETSP; type: in vivo; details: Rattus norvegicus, ip, 0.5 h, i.p., tested 30 min after administration, 95% confidence limits in brackets
Procedure: as §1, §6, §3

[9] = test system: black C57 mice (Charles River); experiment: 6 Hz (44 mA) test, ETSP; type: in vivo; details: Mus musculus, ip, 1 h, i.p., tested 60 min after administration
Procedure: as §1, §6, §3

[10] = test system: black C57 mice (Charles River); experiment: corneal kindled seizure model, ETSP; type: in vivo; details: Mus musculus, ip, 1 h, i.p., tested 60 min after administration
Procedure: as §1, §6, §3

human liver microsomes = experiment: metabolic stability in human liver microsomes; type: in vitro ADME; details: 120 minutes incubation, NADPH cofactor
Procedure: The metabolic stability study was performed using human liver microsomes purchased from Sigma-Aldrich (St. Louis, MO, USA).

in vivo = details: male, C57 black, mouse, ip
Procedure: as §1, §2, §3

HepG2 cell line = experiment: hepatotoxicity, MTS test; details: 72 hours incubation, concentration range 1-100 μM
mice [11] = experiment: forced swim test (Porsolt test); type: in vivo, mouse; details: 30, 45 and 60 mg/kg i.p.; vs vehicle control
Procedure: as §1, with “literature. […] The study group consisted of 8-10 animals. […] To perform a statistical evaluation of the results, one-way analysis of variance (ANOVA) followed by Dunnett's post hoc test (multiple comparison test) were used. The values were considered statistically significant if p<0.05.” for “literature.”

mice [12] = experiment: four plates test (Aron test); type: in vivo, mouse; details: vs vehicle control
Procedure: as §1, with “literature. […] The study group consisted of 8-10 animals. […] To perform a statistical evaluation of the results, one-way analysis of variance (ANOVA) followed by Dunnett's post hoc test (multiple comparison test) were used. The values were considered statistically significant if p<0.05.” for “literature.”

mice [13] = experiment: formalin test; type: in vivo, mouse; details: vs vehicle control
Procedure: as §1, with “literature. […] The study group consisted of 8-10 animals. […] To perform a statistical evaluation of the results, one-way analysis of variance (ANOVA) followed by Dunnett's post hoc test (multiple comparison test) were used. The values were considered statistically significant if p<0.05.” for “literature.”

mice [14] = experiment: neuroprotection in pilocarpine-induced status epilepticus (Fluoro-Jade B); details: PILO 300 mg/kg i.p.; dose of compound determined in the 6 Hz (32 mA) test; five mice shown (B-F)
HEK-293 cell line = experiment: cytotoxic activity, MTS test; details: 72 hours incubation, concentration range 1-100 μM
CYP2D6 = biological target: T2, CYP2D6 (Homo sapiens, UniProt P10635); experiment: CYP2D6 P450-Glo luminescence test; type: in vitro ADME; details: 10 μM
T2 construct: purchased Promega (Madison, WI, USA)
Procedure: as §4, §5

mice [15] = experiment: streptozotocin-induced model of painful diabetic neuropathy, von Frey test; type: in vivo, mouse; details: 3 weeks after streptozotocin
Procedure: as §1, with “literature. […] The study group consisted of 8-10 animals. […] To perform a statistical evaluation of the results, one-way analysis of variance (ANOVA) followed by Dunnett's post hoc test (multiple comparison test) were used. The values were considered statistically significant if p<0.05.” for “literature.”

Swiss albino mice (CD-1) [16] = details: i.p., CD-1 mice, 30 min; racemates, disclosed in publications; cited from earlier work; remark: listed apart in the source

In the case of `NCC1(CC(=O)O)CCCCC1` [gabapentin], the “sedative effect, share of patients” value (patients) is given as “approx. 9 % of patients”.

For `O=C1NC(=O)C(c2ccccc2)(c2ccccc2)N1` [phenytoin], the “sedative effect, share of patients” value (patients) is given as “approx. 32 % of patients”.

With `COc1cccc2c1C(=O)c1c(O)c3c(c(O)c1C2=O)C[C@@](O)(C(=O)CO)C[C@@H]3O[C@H]1C[C@H](N)[C@H](O)[C@H](C)O1` [Doxorubicin, reference compound] the IC50 (HaCaT cells) was 0.23 ± 0.03 µM.

In the case of `CC(C(=O)NCc1ccccc1)N1C(=O)CCC1=O` (racemic) [(RS)-1, (2RS)—N-benzyl-2-(2,5-dioxopyrrolidin-1-yl)propenamide], the “ED50 6 Hz (44 mA)” value (Swiss albino mice (CD-1) [1]) is given as 75.41 mg/kg.

In the case of `C[C@H](C(=O)NCc1ccccc1F)N1C(=O)CCC1=O` [Compound 2, (2R)-2-(2,5-dioxopyrrolidin-1-yl)-N-(2-fluorobenzyl)propanamide], the ED50 (Swiss albino mice (CD-1) [2]) is reported as 37.2 mg/kg, the “viability of human neurons under standard conditions” value [3] is reported as “did not affect the viability” and the “concentrations from which the compound acted trophically (eliminating the effect of lack of B27 supplement)” value [3] is reported as ≥ 0.1 µg/mL. The TD50 at 30 min [4] was 299 mg/kg and the spontaneous locomotor activity (mice [5]; 90 mg/kg i.p.) was “statistically significant increase in spontaneous locomotor activity”.

In the case of `C[C@H](C(=O)NCc1ccccc1)N1C(=O)CCC1=O` [Compound 1, (2R)—N-benzyl-2-(2,5-dioxopyrrolidin-1-yl)propanamide], the “effect on CYP3A4 activity” value (CYP3A4) is reported as “no effect”, the IC50 (HaCaT cells) is reported as 239.8 ± 0.6 µM and the “pain threshold (mechanical stimulus)” value (mice [6]; 30 mg/kg i.p.) is reported as “increased the pain threshold only in the early phase”. For the same molecule, the “pain threshold (mechanical stimulus)” value (mice [6]; 60 mg/kg and 90 mg/kg i.p., early (3 h) and late (7 days) phase, vs measurement before compound) was “led to an increase in pain threshold at a dose-dependent manner”, the “Number of protected rats” value (Sprague-Dawley rats [7]) was “Number of protected rats: 3” and the protection (Sprague-Dawley rats [7]) was “(protection—60%)”. For the same molecule, the “effect on CYP2C9 activity” value (CYP2C9) was “small, statistically significant (p<0.05) inhibition”, the ED50 (Sprague-Dawley rats [8]) was 34.9 mg/kg and the ED50 [9] was 69.9 mg/kg. The ED50 [10] was 38.1 mg/kg, the “metabolites on UPLC chromatogram of reaction mixture” value (human liver microsomes) was “no metabolites appeared” and the TD50 at 60 min (in vivo) was > 150 mg/kg. For the same molecule, the “effect on cell viability” value (HepG2 cell line) was “did not show a statistically significant effect”, the immobility time (mice [11]) was “statistically significantly shortened the immobility time” and the “number of electrically punished plate crossings” value (mice [12]; 30 mg/kg i.p.) was “did not result in a statistically significant difference”. The “number of electrically punished plate crossings” value (mice [12]; 60 mg/kg and 90 mg/kg i.p.) was “statistically significantly increased the number of electrically punished plate crossings”, the “nociceptive response time, second phase (tonic inflammatory pain)” value (mice [13]; i.p., 30, 60 and 90 mg/kg) was “statistically significantly shortened the time of nociceptive response” and the “nociceptive response time, first phase (acute pain)” value (mice [13]; i.p., all doses, statistically significant at 60 and 90 mg/kg) was “reduced the nociceptive response time”. The “neuroprotective effect after PILO-induced SE (neurodegenerative changes)” value (mice [14]) was “a protective effect was obtained for four mice”, the “viability of human neurons under standard conditions” value [3] was “did not affect the viability” and the “concentrations from which the compound acted trophically (eliminating the effect of lack of B27 supplement)” value [3] was ≥ 1 µg/mL. The “effect on cell viability” value (HEK-293 cell line) was “did not show a statistically significant effect”, the “effect on CYP2D6 activity” value (CYP2D6) was “no effect” and the “pain threshold (mechanical stimulus)” value (mice [15]; 90 mg/kg i.p.) was “increased the pain threshold to the values observed before the induction of streptozotocin diabetes”. The “pain threshold (mechanical stimulus)” value (mice [15]; 30, 60 and 90 mg/kg i.p., vs measurement before compound) was “led to an increase in the pain threshold in a statistically significant and dose-dependent manner” and the “number of light beams interruptions during 30 minutes (spontaneous locomotor activity)” value (mice [5]; 30, 60 and 90 mg/kg i.p.) was “statistically significantly increased the number of light beams interruptions”.

In the case of `CC(C(=O)NCc1ccccc1F)N1C(=O)CCC1=O` (racemic) [(RS)-2, (2RS)-2-(2,5-dioxopyrrolidin-1-yl)-N-(2-fluorobenzyl)propanamide], the “TD50 Rotarod test” value (Swiss albino mice (CD-1) [16]) is given as 300.9 mg/kg.

In the case of `Nc1nnc(-c2cccc(Cl)c2Cl)c(N)n1` [lamotrigine], the “sedative effect, share of patients” value (patients) is listed as “approx. 10 % of patients”.

For `CCC1(c2ccccc2)C(=O)NC(=O)NC1=O` [phenobarbital], the “sedative effect, share of patients” value (patients) is given as “approx. 39 % of patients”.

For `CC[C@@H](C(N)=O)N1CCCC1=O` [levetiracetam], the “sedative effect, share of patients” value (patients) is given as “approx. 20 % of patients”.
